Measurements reported in paper PMC12143348, “Rapid and reversible fluorescent probe enables repeated snapshot imaging of AMPA receptors during synaptic plasticity” (Science Advances, 2025).
Read-outs that look alike come from different tables or passages of the source.

Legend:
[1] = Solubility of PFQX(Dye)s in HBS; format: physicochemical; conditions: aqueous buffer; dissolved in HBS
Procedure: aAffinity was evaluated in HEK293T cells expressing GluA2 flip(Q).
S3A. bPFQX(Dye)sweredissolved in HBS.
cAffinity to native AMPARs were evaluated usingprimary cultured hippocampal

GluA4 = molecular target: T1, GluA4 (Mus musculus, UniProt Q9Z2W8); test: Concentration-dependent binding of PFQX1(AF488), confocal live imaging of HEK293T cells expressing GluA4; conditions: n = 3, read-out: Kd / Affinity of PFQX1(AF488) to GluA4
T1 construct: expressed in transfected cells; host or cells: HEK293T
Procedure: (§1) HEK293T cells were cotransfected with plasmids for AMPAR [5′UTR-GluA1^flip(R)-3′UTR, GluA2^flip(Q)-3′UTR, GluA3^flip(Q) (Y454A/R461G), and GluA4^flip(Q)], kainate receptor [GluK2(Q)], auxiliary subunits, or the control vector and transfection marker (EFGP-F or mCherry-F). Fluorophore-ligand conjugates were diluted in Hepes-buffered saline (HBS) buffer [20 mM Hepes (pH 7.4), 107 mM NaCl, 6 mM KCl, 1.2 mM MgSO4, 2 mM CaCl2, and 11.5 mM glucose] and added to the cells. Confocal live imaging was performed with LSM900 (Carl Zeiss) equipped with a 63×, numerical aperture (NA) = 1.4 oil-immersion objective. Fluorescence images were acquired by excitation at 405, 488, 561, or 640 nm derived from diode lasers.
For evaluating the concentration dependency of fluorophore-ligand conjugates, 0.1 nM probe in HBS was added to the dish. Then, probes in HBS were added stepwise to the dish to a final concentration of 0.3, 1, 3, 10, 30, 100, 300, 1000, and 3000 nM. Cell surface fluorescence intensity was quantified from the line scans of transfection marker positive cells and calculated with subtraction of background by ZEN blue software (Carl Zeiss). The membrane intensity was fitted with KaleidaGraph (Synergy software) to calculate the equilibrium constant value using the following equation: a + (b − a)/(1 + (x/c)^d). The equilibrium constant is regarded as the Kd in this study.

GluK2(Q) = molecular target: T2, GluK2(Q) (Rattus norvegicus, UniProt P42260); test: Confocal live imaging of HEK293T cells expressing GluK2(Q) treated with PFQX1(AF488); format: binding; conditions: even at high concentration (300 nM)
T2 construct: expressed in transfected cells; host or cells: HEK293T
Procedure: as §1
Anti-HA mCherry-F Merge1.0
Fig. S8. Sub-micromolar concentrations of PFQX1(AF488) fail to visualize cell surface kainate receptors in HEK293T cells. (A) HA-tag staining of GluK2(Q).
GluK2(Q) expressing cells were treated with anti-HA antibody (Alexa Fluor 647 conjugate) for 15 min. Scale bar, 10 µm. (B) Fluorescence Ca2+ assay to analyze the inhibition of 100 µM kainic acid-induced response by PFQX-amine. HEK293T cells were transfected with GluK2(Q). The intensity was normalized to that at 0.1 µM PFQX-amine (n = 3). (C) Representative results of confocal live cell imaging of HEK293T cells expressing GluK2(Q) are shown. mCherry-F was used as a transfection marker. […]

native AMPARs = test: Concentration-dependent binding of PFQX1(AF488) to AMPARs in primary cultured hippocampal neurons; parameters: species or system mouse; conditions: for Kd: n = 3
Procedure: We modified the Banker’s culture method of hippocampal neurons ([59]). Glass-bottom dishes (14 mm φ, Matsunami) were coated with poly-D-lysine (Sigma-Aldrich) and washed three times with sterile dH2O. Hippocampi from 16-day-old ICR mouse embryos were aseptically dissected and digested with 0.25% (w/v) trypsin (Nacalai Tesque) for 20 min at 37°C. The cells were resuspended in Neurobasal Plus medium supplemented with 10% FBS, 1 mM GlutaMAX I (Invitrogen), penicillin (100 U/ml), and streptomycin (100 μg/ml) and filtered by Cell Strainer (100 μm, Falcon) followed by centrifugation at 1000 rpm for 5 min. The cells were resuspended in Neurobasal Plus medium supplemented with 2% of B-27 Plus Supplement, 1 mM GlutaMAX I (Invitrogen), penicillin (100 U/ml), and streptomycin (100 μg/ml) and plated at a density of 2 × 10^4 cells on glass-bottom dishes. Precultured cortical astrocytes on glass coverslips (13 mm φ) were transferred to the dishes so that astrocytes were faced to neurons. The cultures were maintained at 37°C in a 95% air and 5% CO2 humidified incubator. The culture medium was replaced every 7 days, and the neurons were used at 16 to 18 days in vitro (DIV).
Calcein Red AM (50 nM; AAT Bioquest) was added to the cultured neurons for 30 min at 37°C to visualize the intracellular region. The cells were washed with Hepes-based ACSF [25 mM Hepes (pH 7.4), 140 mM NaCl, 5 mM KCl, 1.3 mM CaCl2, 2 mM MgCl2, and 33 mM glucose], and 100 nM PFQX1(AF488) in Hepes-based ACSF was added to the dish.
For evaluating the concentration dependency of PFQX1(AF488), the cells were treated with 1 nM PFQX1(AF488). Then, PFQX1(AF488) in Hepes-based ACSF was added stepwise to the dish to a final concentration of 3, 10, 30, 100, 300, and 1000 nM. To quantify the concentration dependency after cLTP, the procedure described above was conducted after cLTP stimulation as described in the section “cLTP and quantification of cell-surface AMPARs.” The average intensity of ROIs set on spines was calculated by ZEN blue software after subtracting background fluorescence. The intensity was fitted with KaleidaGraph to calculate the equilibrium constant value using the following equation: a + (b − a)/(1 + (x/c)^d). The equilibrium constant is regarded as the Kd in this study.

T1 sequence (Q9Z2W8 21-902): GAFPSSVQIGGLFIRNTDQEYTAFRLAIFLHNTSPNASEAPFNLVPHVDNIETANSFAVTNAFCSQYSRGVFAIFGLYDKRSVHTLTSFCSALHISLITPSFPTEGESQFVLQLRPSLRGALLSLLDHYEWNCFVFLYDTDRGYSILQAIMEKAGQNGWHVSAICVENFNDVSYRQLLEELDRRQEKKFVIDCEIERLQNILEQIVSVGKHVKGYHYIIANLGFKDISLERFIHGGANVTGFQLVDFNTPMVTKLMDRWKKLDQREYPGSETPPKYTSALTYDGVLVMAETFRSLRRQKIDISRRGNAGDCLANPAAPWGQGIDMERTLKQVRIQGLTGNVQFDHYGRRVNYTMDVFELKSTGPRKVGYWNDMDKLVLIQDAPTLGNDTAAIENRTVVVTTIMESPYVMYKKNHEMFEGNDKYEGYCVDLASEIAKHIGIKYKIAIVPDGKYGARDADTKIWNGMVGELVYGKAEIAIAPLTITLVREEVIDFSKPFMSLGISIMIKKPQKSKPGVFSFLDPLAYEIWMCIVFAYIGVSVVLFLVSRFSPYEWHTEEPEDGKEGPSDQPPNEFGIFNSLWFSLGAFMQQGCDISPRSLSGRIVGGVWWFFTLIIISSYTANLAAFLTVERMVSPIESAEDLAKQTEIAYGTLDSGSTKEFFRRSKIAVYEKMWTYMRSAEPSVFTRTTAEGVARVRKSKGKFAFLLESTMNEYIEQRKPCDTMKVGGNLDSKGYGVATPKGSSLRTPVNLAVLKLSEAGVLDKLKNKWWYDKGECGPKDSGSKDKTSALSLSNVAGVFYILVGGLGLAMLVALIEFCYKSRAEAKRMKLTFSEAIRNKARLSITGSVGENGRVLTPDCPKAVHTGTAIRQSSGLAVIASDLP
T2 sequence (P42260 32-908): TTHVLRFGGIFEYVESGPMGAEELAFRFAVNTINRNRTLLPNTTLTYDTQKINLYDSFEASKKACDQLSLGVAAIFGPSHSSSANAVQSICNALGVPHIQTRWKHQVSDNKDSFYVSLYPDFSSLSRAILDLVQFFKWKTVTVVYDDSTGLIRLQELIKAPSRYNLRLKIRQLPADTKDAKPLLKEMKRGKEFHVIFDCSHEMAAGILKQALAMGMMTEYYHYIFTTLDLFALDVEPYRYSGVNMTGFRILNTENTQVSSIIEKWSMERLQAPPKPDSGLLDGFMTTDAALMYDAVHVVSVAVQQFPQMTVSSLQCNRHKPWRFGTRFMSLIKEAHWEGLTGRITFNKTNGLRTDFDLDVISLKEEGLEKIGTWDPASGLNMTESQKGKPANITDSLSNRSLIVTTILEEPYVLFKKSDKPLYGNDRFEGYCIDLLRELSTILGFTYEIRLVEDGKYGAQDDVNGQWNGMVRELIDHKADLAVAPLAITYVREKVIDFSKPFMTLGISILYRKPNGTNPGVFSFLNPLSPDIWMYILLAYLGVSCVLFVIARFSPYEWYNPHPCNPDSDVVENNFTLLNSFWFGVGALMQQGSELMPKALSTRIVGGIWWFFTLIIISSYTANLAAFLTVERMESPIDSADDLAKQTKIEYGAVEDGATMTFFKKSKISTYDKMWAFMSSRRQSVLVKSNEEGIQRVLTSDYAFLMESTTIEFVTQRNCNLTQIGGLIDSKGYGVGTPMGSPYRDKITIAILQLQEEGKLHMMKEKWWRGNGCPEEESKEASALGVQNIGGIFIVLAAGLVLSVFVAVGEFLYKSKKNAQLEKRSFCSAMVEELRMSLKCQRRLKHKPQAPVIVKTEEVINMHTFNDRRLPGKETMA

solubility [1]: > 1470 µM | Kd (GluA4): 20.2 ± 1.2 nM | visualization of GluK2 (GluK2(Q)): failed to visualize GluK2 | fraction of AMPARs bound / suppressed by the probe (native AMPARs; 10 nM probe, from Fig. 4C): less than 10% | Kd (native AMPARs; cultured hippocampal neurons after cLTP stimulation, read-out: Kd value after cLTP): 72.4 ± 17.4 nM | Kd (native AMPARs; primary cultured hippocampal neurons, spine fluorescence, read-out: Kd / Affinity to native AMPARs): 97.5 ± 9.9 nM
Compound: N=c1ccc2c(-c3ccc(C(=O)NCc4ccn(-c5cc6c(cc5C(F)(F)F)[nH]c(=O)c(=O)n6CC(=O)O)c4)cc3C(=O)O)c3ccc(N)c(S(=O)(=O)O)c3oc-2c1S(=O)(=O)O [PFQX1(AF488)]
